{
  "source": "ChEMBL document CHEMBL3045448",
  "about": "“Enantioselective effects of optically active alpha-methylbenzyl-s-triazine on the root growth of rice and Echinochloa plants and their herbicidal activity” (Biosci Biotechnol Biochem, 2002)",
  "key": {"Echinochloa oryzicola [1]": {"tested_on": "Echinochloa oryzicola", "assay": "Herbicidal activity against sprouting stage of Echinochloa oryzicola seedlings assessed as growth inhibition after 3 weeks by paddy pot test under green house conditions", "format": "functional, organism-based"}, "Echinochloa oryzicola [2]": {"tested_on": "Echinochloa oryzicola", "assay": "Herbicidal activity against Echinochloa oryzicola seedlings measured per 10 acres after 3 weeks by paddy pot test under green house conditions", "format": "functional"}, "[3]": {"tested_on": "Echinochloa crus-galli var. formosensis", "assay": "Phytotoxicity in germinated seedlings of Echinochloa crus-galli var. formosensis (barnyard millet) assessed as root growth inhibition at 30 uM after 3 to 4 days", "format": "organism-based", "details": "in vivo"}, "Oryza sativa": {"tested_on": "Oryza sativa", "assay": "Phytotoxicity in germinated seedlings of Oryza sativa (rice) assessed as root growth inhibition at 30 uM after 3 to 4 days", "format": "organism-based", "details": "in vivo"}, "Echinochloa oryzicola [4]": {"tested_on": "Echinochloa oryzicola", "assay": "Herbicidal activity against Echinochloa oryzicola seedlings assessed as appearance of leaf burn symptom after 3 weeks by paddy pot test under green house conditions", "format": "functional, organism-based"}},
  "note": "The source made the active and inactive calls. The rule behind the calls is not given here.",
  "data": [
    {"smiles": "CCN(CC)c1nc(Cl)nc(N[C@H](C)c2ccccc2)n1", "values": [
      {"measurement": "growth inhibition (GI)", "setting": "Echinochloa oryzicola [1]", "result": "Active"},
      {"measurement": "Activity", "setting": "Echinochloa oryzicola [2]", "result": 250, "unit": "g"}
    ]},
    {"smiles": "CCC(CC)Nc1nc(Cl)nc(N[C@H](C)c2ccccc2)n1", "values": [
      {"measurement": "growth inhibition (GI)", "setting": "[3]", "result": "Toxic"},
      {"measurement": "growth inhibition (GI)", "setting": "Oryza sativa", "result": "Toxic"}
    ]},
    {"smiles": "CCCNc1nc(Cl)nc(N[C@H](C)c2ccccc2)n1", "values": [
      {"measurement": "growth inhibition (GI)", "setting": "Oryza sativa", "result": "Toxic"}
    ]},
    {"smiles": "CCN(CC)c1nc(Cl)nc(NC(C)c2ccccc2)n1", "note": "(configuration not stated)", "values": [
      {"measurement": "growth inhibition (GI)", "setting": "Echinochloa oryzicola [1]", "result": "Active"}
    ]},
    {"smiles": "CCN(CC)c1nc(Cl)nc(N[C@@H](C)c2ccccc2)n1", "values": [
      {"measurement": "growth inhibition (GI)", "setting": "Echinochloa oryzicola [1]", "result": "Active"}
    ]},
    {"smiles": "CCCN(CCC)c1nc(Cl)nc(N[C@H](C)c2ccccc2)n1", "values": [
      {"measurement": "growth inhibition (GI)", "setting": "[3]", "result": "Toxic"},
      {"measurement": "growth inhibition (GI)", "setting": "Oryza sativa", "result": "Toxic"}
    ]},
    {"smiles": "CCCN(CC)c1nc(Cl)nc(N[C@H](C)c2ccccc2)n1", "values": [
      {"measurement": "growth inhibition (GI)", "setting": "[3]", "result": "Toxic"}
    ]},
    {"smiles": "CNc1nc(Cl)nc(N[C@@H](C)c2ccccc2)n1", "values": [
      {"measurement": "growth inhibition (GI)", "setting": "Oryza sativa", "result": "Toxic"}
    ]},
    {"smiles": "C[C@@H](Nc1nc(Cl)nc(NC(C)(C)C)n1)c1ccccc1", "values": [
      {"measurement": "growth inhibition (GI)", "setting": "[3]", "result": "Toxic"}
    ]},
    {"smiles": "CCNc1nc(Cl)nc(N[C@H](C)c2ccccc2)n1", "values": [
      {"measurement": "Activity", "setting": "Echinochloa oryzicola [4]", "result": "Active"},
      {"measurement": "growth inhibition (GI)", "setting": "Echinochloa oryzicola [1]", "result": "Active"}
    ]},
    {"smiles": "CCCCNc1nc(Cl)nc(N[C@H](C)c2ccccc2)n1", "values": [
      {"measurement": "growth inhibition (GI)", "setting": "Oryza sativa", "result": "Toxic"}
    ]},
    {"smiles": "CCNc1nc(Cl)nc(NC(C)C)n1", "values": [
      {"measurement": "Activity", "setting": "Echinochloa oryzicola [4]", "result": "Active"}
    ]},
    {"smiles": "CC[C@H](C)Nc1nc(Cl)nc(N[C@H](C)c2ccccc2)n1", "values": [
      {"measurement": "growth inhibition (GI)", "setting": "Oryza sativa", "result": "Toxic"}
    ]},
    {"smiles": "CCNc1nc(Cl)nc(NC(C)c2ccccc2)n1", "note": "(configuration not stated)", "values": [
      {"measurement": "Activity", "setting": "Echinochloa oryzicola [4]", "result": "Active"},
      {"measurement": "growth inhibition (GI)", "setting": "Echinochloa oryzicola [1]", "result": "Active"}
    ]},
    {"smiles": "CCNc1nc(Cl)nc(N[C@@H](C)c2ccccc2)n1", "values": [
      {"measurement": "growth inhibition (GI)", "setting": "Oryza sativa", "result": "Toxic"},
      {"measurement": "Activity", "setting": "Echinochloa oryzicola [4]", "result": "Active"}
    ]},
    {"smiles": "CCCN(C)c1nc(Cl)nc(N[C@H](C)c2ccccc2)n1", "values": [
      {"measurement": "growth inhibition (GI)", "setting": "Oryza sativa", "result": "Toxic"}
    ]}
  ]
}
